“And” between values parts separate entries of the source, which are not always exact repeats. Identical values can stand only once.
Tests used:
OX2 = target: T1, OX2 (Homo sapiens, UniProt O43614); test: Orexin receptor cell-based functional assay, [Ca2+]i by FLIPR, CHO-OX2 cells; conditions: FLIPR calcium, antagonism of EC90 of [OX]
T1 construct: expressed in transfected cells; host or cells: CHO (CHO-OX2)
T1 sequence (O43614 1-444): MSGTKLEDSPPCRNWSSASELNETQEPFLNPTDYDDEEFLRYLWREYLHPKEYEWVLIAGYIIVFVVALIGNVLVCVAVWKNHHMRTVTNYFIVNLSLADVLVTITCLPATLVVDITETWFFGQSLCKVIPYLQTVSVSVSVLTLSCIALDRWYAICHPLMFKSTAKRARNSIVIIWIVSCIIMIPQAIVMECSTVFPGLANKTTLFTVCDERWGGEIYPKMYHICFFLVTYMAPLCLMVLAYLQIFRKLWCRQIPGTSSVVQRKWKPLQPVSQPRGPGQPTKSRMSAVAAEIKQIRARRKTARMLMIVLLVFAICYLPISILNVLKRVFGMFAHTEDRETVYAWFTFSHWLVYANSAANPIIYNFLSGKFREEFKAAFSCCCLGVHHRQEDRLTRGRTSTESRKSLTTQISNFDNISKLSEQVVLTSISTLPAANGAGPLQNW
Procedure: (§1) Measurement of [Ca^2+]i using a FLIPR: CHO-OX1 or CHO-OX2 cells were seeded into black-walled clear-base 384-well plates (Corning, catalog #3712) at a density of 20,000 cells per well in F12-K medium supplemented with 10% FBS and then incubated in a 5% CO2, 37° C. incubator overnight to reach 90% confluency. The cells were incubated with equal volume of calcium6 loading buffer (Molecular Devices, Inc.) containing 2.5 mM probenecid at 37° C. for 2 h, followed by test compounds (dose-range 0.1 nM-10 μM) for another 30 min. The plates were then placed into a FLIPR (Molecular Devices, Inc.) to monitor fluorescence (λ excitation 488 nm, λ emission 540 nm) before and after the addition of EC90 of [OX]. Results for exemplary compounds of Formulae (I), (Ia), (Ib), (II), (IIa), (III), (IIIa), (IV), (IVa), (V), or (Va) are shown in Table 3.

OX1 = target: T2, OX1 (Homo sapiens, UniProt O43613); test: Orexin receptor cell-based functional assay, [Ca2+]i by FLIPR, CHO-OX1 cells; conditions: FLIPR calcium, antagonism of EC90 of [OX], read-out: OXI, IC50
T2 construct: expressed in transfected cells; host or cells: CHO (CHO-OX1)
T2 sequence (O43613 1-425): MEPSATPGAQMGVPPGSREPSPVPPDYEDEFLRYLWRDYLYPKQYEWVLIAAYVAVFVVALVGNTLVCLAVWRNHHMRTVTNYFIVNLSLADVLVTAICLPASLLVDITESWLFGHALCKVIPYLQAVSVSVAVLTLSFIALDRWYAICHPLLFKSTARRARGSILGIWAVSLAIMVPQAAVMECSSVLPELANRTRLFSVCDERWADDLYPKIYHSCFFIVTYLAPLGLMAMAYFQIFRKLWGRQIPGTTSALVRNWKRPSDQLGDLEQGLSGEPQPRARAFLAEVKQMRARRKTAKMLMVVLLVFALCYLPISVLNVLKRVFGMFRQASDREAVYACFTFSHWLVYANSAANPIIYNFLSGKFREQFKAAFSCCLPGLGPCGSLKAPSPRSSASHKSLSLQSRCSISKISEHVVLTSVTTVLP
Procedure: as §1, with “[OX].” for “[OX]. Results for exemplary compounds of Formulae (I), (Ia), (Ib), (II), (IIa), (III), (IIIa), (IV), (IVa), (V), or (Va) are shown in Table 3.”

| SMILES | IC50 (OX2) | IC50 (OX1) |
| --- | --- | --- |
| C[C@@H]1CC(F)(F)CN(C(=O)c2cc(Cl)ccc2-c2ncccn2)[C@@H]1CNc1ncc(Cl)cn1 [Compound 57, (5-chloro-2-(pyrimidin-2-yl)phenyl)((2S,3R)-2-(((5-chloropyrimidin-2-yl)amino)methyl)-5,5-difluoro-3-methylpiperidin-1-yl)methanone] | > 5000 nM | 24 nM |
| C[C@@H]1CC(F)(F)CN(C(=O)c2nn(C)nc2-c2ccccn2)[C@@H]1CNc1ncc(C(F)(F)F)cn1 [Compound 83] | > 5000 nM | 56 nM |
| Cc1ccc(-c2ncccn2)c(C(=O)N2CC(F)(F)C[C@@H](C)[C@H]2CNc2ccc(C(F)(F)F)cn2)n1 [Compound 183, ((2S,3R)-5,5-difluoro-3-methyl-2-(((5-(trifluoromethyl)pyridin-2-yl)amino)methyl)piperidin-1-yl)(6-methyl-3-(pyrimidin-2-yl)pyridin-2-yl)methanone] | > 5000 nM | 12 nM |
| C[C@@H]1CC(F)(F)CN(C(=O)c2nn(C)nc2-c2ccc(F)cc2)[C@@H]1CNc1ncc(C(F)(F)F)cn1 [Compound 81] | > 5000 nM | 102 nM |
| C[C@@H]1CC(F)(F)CN(C(=O)c2nn(C)nc2-c2ccc(Cl)cn2)[C@@H]1CNc1ncc(C(F)(F)F)cn1 [Compound 249] | > 5000 nM | 8 nM |
| Cc1cccc(-c2cn(C)nc2C(=O)N2CC(F)(F)C[C@@H](C)[C@H]2CNc2cnc(C(F)(F)F)cn2)c1 [Compound 123] | > 5000 nM | 2 nM |
| Cc1ccc(-n2nccn2)c(C(=O)N2CC(F)(F)C[C@@H](C)[C@H]2CNc2ncc(C(F)(F)F)cn2)c1 [Compound 5] | > 5000 nM | 10 nM |
| C[C@@H]1CC(F)(F)CN(C(=O)c2nn(C)cc2-c2ccc(F)cc2)[C@@H]1CNc1cnc(C(F)(F)F)cn1 [Compound 121] | > 5000 nM | 5 nM |
| Cc1ccc(-c2cn(C)nc2C(=O)N2CC(F)(F)C[C@@H](C)[C@H]2CNc2cnc(C(F)(F)F)cn2)cc1 [Compound 122] | > 5000 nM | 5 nM |
| Cc1cc(C(=O)N2CC(F)(F)C[C@@H](C)[C@H]2CNc2ncc(Cl)cn2)c(-c2ccccn2)s1 [Compound 92] | > 5000 nM | 24 nM |
| Cc1nc(-c2ccccc2)c(C(=O)N2CC(F)(F)C[C@@H](C)[C@H]2CNc2ncc(C(F)(F)F)cn2)s1 [Compound 48] | > 5000 nM | 607 nM |
| C[C@@H]1CC(F)(F)CN(C(=O)c2cc(C#N)ccc2-c2ccc(F)cc2)[C@@H]1CNc1ncc(Cl)cn1 [Compound 53] | > 5000 nM | 29 nM |
| COc1ccc(-c2cn(C)nc2C(=O)N2CC(F)(F)C[C@@H](C)[C@H]2CNc2cnc(C(F)(F)F)cn2)cc1 [Compound 125] | > 5000 nM | 4 nM and 2 nM |
| Cc1nc(C(=O)N2CC(F)(F)C[C@@H](C)[C@H]2CNc2cnc(C(F)(F)F)cn2)c(-c2cc(F)ccn2)s1 [Compound 150] | > 5000 nM |  |
| Cc1nc(C(=O)N2CC(F)(F)C[C@@H](C)[C@H]2CNc2cnc(C(F)(F)F)cn2)c(-c2cccnc2)o1 [Compound 156] | > 5000 nM | > 1000 nM |
| C[C@@H]1CC(F)(F)CN(C(=O)c2nn(C)cc2-c2ccccc2)[C@@H]1CNc1ncc(C(F)(F)F)cn1 [Compound 21] | > 5000 nM | 2 nM |
| C[C@@H]1CC(F)(F)CN(C(=O)c2nn(C)cc2-c2cccc(F)c2)[C@@H]1CNc1ncc(C(F)(F)F)cn1 [Compound 25] | > 5000 nM | 4 nM |
| Cc1ccc(-c2sc(C)nc2C(=O)N2CC(F)(F)C[C@@H](C)[C@H]2CNc2cnc(C(F)(F)F)cn2)nc1 [Compound 148] | > 5000 nM | 6 nM |

| SMILES | IC50 (OX2) | IC50 (OX1) |
| --- | --- | --- |
| Cc1ccc(-n2nccn2)c(C(=O)N2CC(F)(F)C[C@@H](C)[C@H]2COc2ccc(C(F)(F)F)cn2)n1 [Compound 204, ((2S,3R)-5,5-difluoro-3-methyl-2-(((5-(trifluoromethyl)pyridin-2-yl)oxy)methyl)piperidin-1-yl)(6-methyl-3-(2H-1,2,3-triazol-2-yl)pyridin-2-yl)methanone] | > 5000 nM | 40 nM |
| Cc1ccccc1-c1cn(C)nc1C(=O)N1CC(F)(F)C[C@@H](C)[C@H]1CNc1ncc(C(F)(F)F)cn1 [Compound 24] | > 5000 nM | 385 nM |
| C[C@@H]1CC(F)(F)CN(C(=O)c2nn(C)cc2-c2ccc(F)cc2)[C@@H]1CNc1ncc(Cl)cn1 [Compound 31] | > 5000 nM | 4 nM |
| Cc1ccnc(-c2sc(C)nc2C(=O)N2CC(F)(F)C[C@@H](C)[C@H]2CNc2ncc(C(F)(F)F)cn2)c1 [Compound 74] | > 5000 nM | 6 nM |
| Cc1c(-c2ncc(F)cn2)c(C(=O)N2CC(F)(F)C[C@@H](C)[C@H]2CNc2ncc(C(F)(F)F)cn2)nn1C [Compound 264, ((2S,3R)-5,5-difluoro-3-methyl-2-(((5-(trifluoromethyl)pyrimidin-2-yl)amino)methyl)piperidin-1-yl)(4-(5-fluoropyrimidin-2-yl)-1,5-dimethyl-1H-pyrazol-3-yl)methanone] | > 5000 nM | 3 nM |
| COc1cccc(-c2cn(C)nc2C(=O)N2CC(F)(F)C[C@@H](C)[C@H]2CNc2ncc(C(F)(F)F)cn2)c1 [Compound 29] | > 5000 nM | 4 nM |
| Cc1ccc(-n2nccn2)c(C(=O)N2CC(F)(F)C[C@@H](C)[C@H]2CNc2ccc(C(F)(F)F)cn2)n1 [Compound 174] | > 5000 nM | 4 nM |
| Cc1ccc(-c2ccccc2)c(C(=O)N2CC(F)(F)C[C@@H](C)[C@H]2CNc2ncc(C(F)(F)F)cn2)n1 [Compound 51] | > 5000 nM | 4 nM |
| C[C@@H]1CC(F)(F)CN(C(=O)c2cc(Cl)ccc2-c2nnn(C)n2)[C@@H]1CNc1ccc(C(F)(F)F)cn1 [Compound 182] |  | 17 nM |
| C[C@@H]1CC(F)(F)CN(C(=O)c2nn(C)cc2-c2ncc(F)cn2)[C@@H]1COc1ncc(C(F)(F)F)cc1F [Compound 245] | > 5000 nM |  |
| C[C@@H]1CC(F)(F)CN(C(=O)c2nn(C)cc2-c2ccccc2F)[C@@H]1CNc1ncc(C(F)(F)F)cn1 [Compound 23] | > 5000 nM |  |
| COc1ccc(-c2sc(C)nc2C(=O)N2CC(F)(F)C[C@@H](C)[C@H]2CNc2cnc(C(F)(F)F)cn2)cc1 [Compound 141] |  | 6 nM |
| Cc1ccc(-c2sc(C)nc2C(=O)N2CC(F)(F)C[C@@H](C)[C@H]2CNc2ccc(C(F)(F)F)cn2)nc1 [Compound 197] | > 5000 nM |  |
| Cc1cccc(-c2sc(C)nc2C(=O)N2CC(F)(F)C[C@@H](C)[C@H]2CNc2ncc(C(F)(F)F)cn2)c1 [Compound 63] | > 5000 nM |  |
| Cc1nc(C(=O)N2CC(F)(F)C[C@@H](C)[C@H]2CNc2cnc(C(F)(F)F)cn2)c(-c2ccc(F)cc2)s1 [Compound 137] |  | 5 nM |
| Cc1ccc(-c2cn(C)nc2C(=O)N2CC(F)(F)C[C@@H](C)[C@H]2COc2ccc(C(F)(F)F)cn2)nc1 [Compound 206, ((2S,3R)-5,5-difluoro-3-methyl-2-(((5-(trifluoromethyl)pyridin-2-yl)oxy)methyl)piperidin-1-yl)(1-methyl-4-(5-methylpyridin-2-yl)-1H-pyrazol-3-yl)methanone] |  | 22 nM |
| C[C@@H]1CC(F)(F)CN(C(=O)c2nn(C)cc2-c2ncc(F)cn2)[C@@H]1COc1cnc(C(F)(F)F)cn1 [Compound 244] | > 5000 nM |  |
| C[C@@H]1CC(F)(F)CN(C(=O)c2nn(C)cc2-c2ccc(F)cc2)[C@@H]1CNc1ncc(C(F)(F)F)cn1 [Compound 30] | > 5000 nM |  |

— patent publication US12084437B2, “Halo-substituted piperidines as orexin receptor modulators” (AstraZeneca AB, priority 2016, dated 2024)
